Experimental data: ChEMBL document CHEMBL4680148, “Semisynthesis and biological evaluation of amidochelocardin derivatives as broad-spectrum antibiotics” (Eur J Med Chem, 2020)
≈ marks a conversion by molar mass, not a printed value.

How the values were obtained:
[1] = tested on: Pseudomonas aeruginosa; assay: Antibacterial activity against Pseudomonas aeruginosa PA14 delta mexAB assessed as minimum inhibitory concentration required for inhibition of bacterial growth measured after 18 hrs by microdilution method; assay type: functional
[2] = tested on: Escherichia coli; assay: Antibacterial activity against Escherichia coli DSM-1116 assessed as minimum inhibitory concentration required for inhibition of bacterial growth measured after 18 hrs by microdilution method; assay type: functional
[3] = tested on: Staphylococcus aureus; assay: Antibacterial activity against Staphylococcus aureus Newman assessed as minimum inhibitory concentration required for inhibition of bacterial growth measured after 18 hrs by microdilution method; assay type: functional
[4] = tested on: Escherichia coli; assay: Antibacterial activity against Escherichia coli DSM-1116 assessed as minimum inhibitory concentration required for inhibition of bacterial growth in presence of outer membrane permeabilizer PMBN measured after 18 hrs by microdilution method; assay type: functional
[5] = tested on: Enterococcus faecium; assay: Antibacterial activity against Enterococcus faecium DSM-20477 assessed as minimum inhibitory concentration required for inhibition of bacterial growth measured after 18 hrs by microdilution method; assay type: functional
[6] = tested on: Klebsiella pneumoniae; assay: Antibacterial activity against Klebsiella pneumoniae DSM-30104 assessed as minimum inhibitory concentration required for inhibition of bacterial growth measured after 18 hrs by microdilution method; assay type: functional
[7] = tested on: Staphylococcus aureus; assay: Antibacterial activity against Staphylococcus aureus DSM-11822 assessed as minimum inhibitory concentration required for inhibition of bacterial growth measured after 18 hrs by microdilution method; assay type: functional
[8] = tested on: Pseudomonas aeruginosa; assay: Antibacterial activity against Pseudomonas aeruginosa PA14 assessed as minimum inhibitory concentration required for inhibition of bacterial growth measured after 18 hrs by microdilution method; assay type: functional
[9] = Stability of the compound in Escherichia coli assessed as intact compound by LC-MS analysis; assay type: ADME
[10] = Stability of the compound in Escherichia coli growth medium assessed as intact compound by LC-MS analysis; assay type: physicochemical
[11] = tested on: Pseudomonas aeruginosa; assay: Antibacterial activity against Pseudomonas aeruginosa PA14 delta mexAB assessed as minimum inhibitory concentration required for inhibition of bacterial growth in presence of outer membrane permeabilizer PMBN measured after 18 hrs by microdilution method; assay type: functional
[12] = tested on: Pseudomonas aeruginosa; assay: Antibacterial activity against Pseudomonas aeruginosa DSM-1128 assessed as minimum inhibitory concentration required for inhibition of bacterial growth measured after 18 hrs by microdilution method; assay type: functional
[13] = tested on: Klebsiella pneumoniae; assay: Antibacterial activity against Klebsiella pneumoniae DSM-30104 assessed as minimum inhibitory concentration required for inhibition of bacterial growth in presence of outer membrane permeabilizer PMBN measured after 18 hrs by microdilution method; assay type: functional
[14] = tested on: Escherichia coli; assay: Antibacterial activity against Escherichia coli assessed as minimum inhibitory concentration required for inhibition of bacterial growth in presence of outer membrane permeabilizer PMBN measured after 18 hrs by microdilution method; assay type: functional
[15] = tested on: Escherichia coli; assay: Antibacterial activity against Escherichia coli assessed as minimum inhibitory concentration required for inhibition of bacterial growth measured after 18 hrs by microdilution method; assay type: functional
[16] = tested on: Staphylococcus aureus; assay: Antibacterial activity against Staphylococcus aureus DSM-346 assessed as minimum inhibitory concentration required for inhibition of bacterial growth measured after 18 hrs by microdilution method; assay type: functional

| SMILES | MIC [1] | MIC [3] | MIC [5] | MIC [6] | MIC [7] | MIC [8] | other results |
| --- | --- | --- | --- | --- | --- | --- | --- |
| C=CC(=O)N[C@H]1C(O)=C(C(N)=O)C(=O)[C@@]2(O)C(=O)c3c(c(C)c4ccc(C)c(O)c4c3O)C[C@@H]12 | > 64 mg/L | 4 mg/L (≈ 8.58 µM) | 8 mg/L (≈ 17.2 µM) |  |  |  | MIC [2]: 32 mg/L (≈ 68.6 µM); MIC [4]: 2 mg/L |
| Cc1cc([N+](=O)[O-])c2c(C)c3c(c(O)c2c1O)C(=O)[C@]1(O)C(=O)C(C(N)=O)=C(O)[C@H](N)[C@@H]1C3 |  |  | > 64 mg/L | > 64 mg/L | > 64 mg/L | > 64 mg/L |  |
| Cc1ccc2c(C)c3c(c(O)c2c1OC(=O)c1ccc(Br)cc1)C(=O)[C@]1(O)C(=O)C(C(N)=O)=C(O)[C@H](N)[C@@H]1C3 |  | 4 mg/L (≈ 6.72 µM) | 4 mg/L (≈ 6.72 µM) |  |  |  | MIC [2]: > 64 mg/L; Stabilty [9]: Stable; MIC [4]: 64 mg/L; Stabilty [10]: Stable; MIC [11]: > 64 mg/L |
| CC1=CC(=O)c2c(C)c3c(c(O)c2C1=O)C(=O)[C@]1(O)C(=O)C(C(N)=O)=C(O)[C@H](N)[C@@H]1C3 |  | 32 mg/L (≈ 75.1 µM) |  | > 64 mg/L |  |  | MIC [12]: > 64 mg/L; MIC [13]: 64 mg/L |
| COc1ccc(C(=O)N[C@H]2C(O)=C(C(N)=O)C(=O)[C@@]3(O)C(=O)c4c(c(C)c5ccc(C)c(O)c5c4O)C[C@@H]23)cc1 | 64 mg/L (≈ 117 µM) |  |  | > 64 mg/L | 4 mg/L (≈ 7.32 µM) | > 64 mg/L |  |
| Cc1cc(F)c2c(C)c3c(c(O)c2c1O)C(=O)[C@]1(O)C(=O)C(C(N)=O)=C(O)[C@H](N)[C@@H]1C3 | 4 mg/L (≈ 9.29 µM) |  |  | 8 mg/L (≈ 18.6 µM) | 4 mg/L (≈ 9.29 µM) | 8 mg/L (≈ 18.6 µM) |  |
| Cc1ccc2c(C)c3c(c(O)c2c1O)C(=O)[C@]1(O)C(=O)C(C(N)=O)=C(O)[C@H](NS(C)(=O)=O)[C@@H]1C3 |  |  | 32 mg/L (≈ 65.2 µM) | > 64 mg/L | > 64 mg/L | > 64 mg/L |  |
| Cc1ccc2c(C)c3c(c(O)c2c1O)C(=O)[C@]1(O)C(=O)C(C(N)=O)=C(O)[C@H](N2C(=O)c4ccccc4C2=O)[C@@H]1C3 | > 64 mg/L |  |  | > 64 mg/L | 0.125 mg/L (≈ 0.23 µM) | > 64 mg/L | MIC [14]: 0.5 mg/L; MIC [15]: > 64 mg/L |
| Cc1ccc2c(C)c3c(c(O)c2c1O)C(=O)[C@]1(O)C(=O)C(C(N)=O)=C(O)[C@H](N)[C@@H]1C3.O=C([O-])CC(O)(CC(=O)[O-])C(=O)[O-].[Na+].[Na+].[Na+] | 0.5 mg/L |  | 4 mg/L | 2 mg/L | 8 mg/L | 16 mg/L | MIC [2]: 0.5 mg/L; Stabilty [9]: Unstable; Stabilty [10]: Unstable |
| Cc1cc(Br)c2c(C)c3c(c(O)c2c1O)C(=O)[C@]1(O)C(=O)C(C(N)=O)=C(O)[C@H](N)[C@@H]1C3 |  | 8 mg/L (≈ 16.3 µM) |  | 8 mg/L (≈ 16.3 µM) |  |  | MIC [12]: 32 mg/L (≈ 65.1 µM); MIC [13]: 4 mg/L |
| Cc1ccc2c(C)c3c(c(O)c2c1O)C(=O)[C@]1(O)C(=O)C(C(N)=O)=C(O)[C@H](N(C)C)[C@@H]1C3 |  |  | > 64 mg/L | > 64 mg/L |  | > 64 mg/L | MIC [16]: > 64 mg/L |
| CN[C@H]1C(O)=C(C(N)=O)C(=O)[C@@]2(O)C(=O)c3c(c(C)c4ccc(C)c(O)c4c3O)C[C@@H]12 |  |  | > 64 mg/L | > 64 mg/L |  | > 64 mg/L | MIC [16]: > 64 mg/L |
| Cc1ccc2c(C)c3c(c4c2c1O[Si](C(C)(C)C)(C(C)(C)C)O4)C(=O)[C@]1(O)C(=O)C(C(N)=O)=C(O)[C@H](N)[C@@H]1C3 |  |  |  | > 64 mg/L | 1 mg/L (≈ 1.81 µM) | > 64 mg/L | MIC [14]: 8 mg/L; MIC [15]: 64 mg/L (≈ 116 µM) |
| CC(=O)C1=C(O)[C@H](N)[C@@H]2Cc3c(c(O)c4c(O)c(C)ccc4c3C)C(=O)[C@]2(O)C1=O.O=C([O-])CC(O)(CC(=O)[O-])C(=O)[O-].[Na+].[Na+].[Na+] | 4 mg/L |  | 8 mg/L | 2 mg/L | 8 mg/L | 64 mg/L | MIC [2]: 2 mg/L |
| CC(=O)Oc1c(C)ccc2c(C)c3c(c(O)c12)C(=O)[C@]1(O)C(=O)C(C(N)=O)=C(O)[C@H](N)[C@@H]1C3 |  | 16 mg/L (≈ 35.2 µM) | 16 mg/L (≈ 35.2 µM) |  |  |  | MIC [2]: 8 mg/L (≈ 17.6 µM); Stabilty [9]: Stable; Stabilty [10]: Stable; MIC [11]: 1 mg/L |
| Cc1ccc2c(C)c3c(c(O)c2c1O)C(=O)[C@]1(O)C(=O)C(C(N)=O)=C(O)[C@H](N2C(=O)C=CC2=O)[C@@H]1C3 | > 64 mg/L |  |  | 64 mg/L (≈ 130 µM) | 2 mg/L (≈ 4.06 µM) | > 64 mg/L | MIC [14]: 8 mg/L; MIC [15]: > 64 mg/L |
| Cc1ccc2c(C)c3c(c(O)c2c1O)C(=O)[C@]1(O)C(=O)C(C(N)=O)=C(O)[C@H](NC(=O)CN2CCN(C)CC2)[C@@H]1C3 | 32 mg/L (≈ 57.9 µM) | > 64 mg/L | > 64 mg/L |  |  |  | MIC [2]: 54 mg/L (≈ 97.7 µM); MIC [4]: 32 mg/L |
| CC(=O)N[C@H]1C(O)=C(C(N)=O)C(=O)[C@@]2(O)C(=O)c3c(c(C)c4ccc(C)c(O)c4c3O)C[C@@H]12 |  |  | 32 mg/L (≈ 70.4 µM) | > 64 mg/L | > 64 mg/L | > 64 mg/L |  |
| Cc1ccc2c(C)c3c(c(O)c2c1O)C(=O)[C@]1(O)C(=O)C(C(N)=O)=C(O)[C@H](NC(=O)OCc2ccccc2)[C@@H]1C3 |  |  | 0.25 mg/L (≈ 0.457 µM) | > 64 mg/L | > 64 mg/L | > 64 mg/L |  |
| COc1ccc(-c2cc(C)c(O)c3c(O)c4c(c(C)c23)C[C@H]2[C@@H](N)C(O)=C(C(N)=O)C(=O)[C@@]2(O)C4=O)cc1 |  |  |  | > 64 mg/L | 1 mg/L (≈ 1.93 µM) | > 64 mg/L | MIC [14]: 2 mg/L; MIC [15]: 32 mg/L (≈ 61.7 µM) |
| Cc1cc(Cl)c2c(C)c3c(c(O)c2c1O)C(=O)[C@]1(O)C(=O)C(C(N)=O)=C(O)[C@H](N)[C@@H]1C3 |  | 4 mg/L (≈ 8.95 µM) |  | 8 mg/L (≈ 17.9 µM) |  |  | MIC [12]: 16 mg/L (≈ 35.8 µM); MIC [13]: 8 mg/L |
| CCOC(=O)N[C@H]1C(O)=C(C(N)=O)C(=O)[C@@]2(O)C(=O)c3c(c(C)c4ccc(C)c(O)c4c3O)C[C@@H]12 | 64 mg/L (≈ 132 µM) |  |  | 16 mg/L (≈ 33 µM) | 2 mg/L (≈ 4.13 µM) | > 64 mg/L |  |
| Cc1ccc2c(C)c3c(c(O)c2c1O)C(=O)[C@]1(O)C(=O)C(C(N)=O)=C(O)[C@H](NC(=O)CCN)[C@@H]1C3 | 32 mg/L (≈ 66.2 µM) | 64 mg/L (≈ 132 µM) | > 64 mg/L |  |  |  | MIC [2]: 16 mg/L (≈ 33.1 µM); MIC [4]: 8 mg/L |
| Cc1cc(C)c(-c2cc(C)c(O)c3c(O)c4c(c(C)c23)C[C@H]2[C@@H](N)C(O)=C(C(N)=O)C(=O)[C@@]2(O)C4=O)c(C)c1 |  |  |  | 32 mg/L (≈ 60.3 µM) | 0.5 mg/L (≈ 0.942 µM) | > 64 mg/L | MIC [14]: 8 mg/L; MIC [15]: > 64 mg/L |
